Measured values from the supplement of paper PMC10307832.

Columns and labels:
Assay in all cases: relative viability (nuclei count vs DMSO), 5 days (fraction); higher = more cells survive
EMC-BAC-2 = system: EMC-BAC-2
Summary of the method: (§1)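 Lung cancer cell lines were seeded in 1536-well plates and dosed by pin tool the next day, with either a single drug or a fixed anchor-drug dose combined with five library-drug doses (not always all listed) spaced in √10 steps. Five days later, one step fixed the cells and stained their nuclei (final 0.05% Triton X-100, 1% formaldehyde, 1 ug/ml Hoechst), and nuclei were counted on 4× images. Relative viability is the nuclei count in treated wells divided by the count in vehicle wells, and each value is the median of duplicate plates.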

EPLC-272H = system: EPLC-272H
Summary of the method: as §1

H3255 = system: H3255
Summary of the method: as §1

HOP-62 = system: HOP-62
Summary of the method: as §1

LCLC-97TM1 = system: LCLC-97TM1
Summary of the method: as §1

LXF-289 = system: LXF-289
Summary of the method: as §1

NCI-H1563 = system: NCI-H1563
Summary of the method: as §1

NCI-H1734 = system: NCI-H1734
Summary of the method: as §1

NCI-H1915 = system: NCI-H1915
Summary of the method: as §1

NCI-H1993 = system: NCI-H1993
Summary of the method: as §1

NCI-H2009 = system: NCI-H2009
Summary of the method: as §1

NCI-H2023 = system: NCI-H2023
Summary of the method: as §1

NCI-H2085 = system: NCI-H2085
Summary of the method: as §1

NCI-H2126 = system: NCI-H2126
Summary of the method: as §1

NCI-H2347 = system: NCI-H2347
Summary of the method: as §1

NCI-H322M = system: NCI-H322M
Summary of the method: as §1

NCI-H647 = system: NCI-H647
Summary of the method: as §1

NCI-H661 = system: NCI-H661
Summary of the method: as §1

NCI-H727 = system: NCI-H727
Summary of the method: as §1

PC-14 = system: PC-14
Summary of the method: as §1

SK-LU-1 = system: SK-LU-1
Summary of the method: as §1

SW 1573 = system: SW 1573
Summary of the method: as §1

Work on `O=c1cc(-c2cccc3c2Sc2ccccc2S3)oc(N2CCOCC2)c1` + Cc1nc(Nc2ncc(C(=O)Nc3c(C)cccc3Cl)s2)cc(N2CCN(CCO)CC2)n1 [Dasatinib] (partner 0.075 µM) yielded a relative viability (EMC-BAC-2; first compound 0.08 µM) of 0.252, a relative viability (EMC-BAC-2; first compound 0.253 µM) of 0.368 and a relative viability (EMC-BAC-2; first compound 0.8 µM) of 0.306. It also gave a relative viability (EMC-BAC-2; first compound 2.53 µM) of 0.303, a relative viability (EMC-BAC-2; first compound 8 µM) of 0.399 and a relative viability (EPLC-272H; first compound 0.08 µM) of 0.331. For the same compound, the relative viability (EPLC-272H; first compound 0.253 µM) was 0.397, the relative viability (EPLC-272H; first compound 0.8 µM) was 0.399 and the relative viability (EPLC-272H; first compound 2.53 µM) was 0.306. For the same compound, the relative viability (EPLC-272H; first compound 8 µM) was 0.347, the relative viability (H3255; first compound 0.08 µM) was 0.334 and the relative viability (H3255; first compound 0.253 µM) was 0.288. For the same compound, the relative viability (H3255; first compound 0.8 µM) was 0.363, the relative viability (H3255; first compound 2.53 µM) was 0.342 and the relative viability (H3255; first compound 8 µM) was 0.556. For the same compound, the relative viability (HOP-62; first compound 0.08 µM) was 0.615, the relative viability (HOP-62; first compound 0.253 µM) was 0.835 and the relative viability (HOP-62; first compound 0.8 µM) was 0.679. It also gave a relative viability (HOP-62; first compound 2.53 µM) of 0.562, a relative viability (HOP-62; first compound 8 µM) of 0.543 and a relative viability (LCLC-97TM1; first compound 0.08 µM) of 0.899. For the same compound, the relative viability (LCLC-97TM1; first compound 0.253 µM) was 0.863, the relative viability (LCLC-97TM1; first compound 0.8 µM) was 0.956 and the relative viability (LCLC-97TM1; first compound 2.53 µM) was 0.749. The relative viability (LCLC-97TM1; first compound 8 µM) was 0.757, the relative viability (LXF-289; first compound 0.08 µM) was 0.219 and the relative viability (LXF-289; first compound 0.253 µM) was 0.21. The relative viability (LXF-289; first compound 0.8 µM) was 0.226, the relative viability (LXF-289; first compound 2.53 µM) was 0.239 and the relative viability (LXF-289; first compound 8 µM) was 0.224. For the same compound, the relative viability (NCI-H1563; first compound 0.08 µM) was 0.473, the relative viability (NCI-H1563; first compound 0.253 µM) was 0.454 and the relative viability (NCI-H1563; first compound 0.8 µM) was 0.437. For the same compound, the relative viability (NCI-H1563; first compound 2.53 µM) was 0.366, the relative viability (NCI-H1563; first compound 8 µM) was 0.467 and the relative viability (NCI-H1734; first compound 0.08 µM) was 0.469. It also gave a relative viability (NCI-H1734; first compound 0.253 µM) of 0.49, a relative viability (NCI-H1734; first compound 0.8 µM) of 0.503 and a relative viability (NCI-H1734; first compound 8 µM) of 0.513. For the same compound, the relative viability (NCI-H1915; first compound 0.08 µM) was 0.296, the relative viability (NCI-H1915; first compound 0.253 µM) was 0.351 and the relative viability (NCI-H1915; first compound 0.8 µM) was 0.309. For the same compound, the relative viability (NCI-H1915; first compound 2.53 µM) was 0.306, the relative viability (NCI-H1915; first compound 8 µM) was 0.337 and the relative viability (NCI-H1993; first compound 0.08 µM) was 0.519. For the same compound, the relative viability (NCI-H1993; first compound 0.253 µM) was 0.581, the relative viability (NCI-H1993; first compound 0.8 µM) was 0.544 and the relative viability (NCI-H1993; first compound 2.53 µM) was 0.525. For the same compound, the relative viability (NCI-H1993; first compound 8 µM) was 0.56, the relative viability (NCI-H2009; first compound 0.08 µM) was 0.298 and the relative viability (NCI-H2009; first compound 0.253 µM) was 0.301. The relative viability (NCI-H2009; first compound 0.8 µM) was 0.29, the relative viability (NCI-H2009; first compound 2.53 µM) was 0.235 and the relative viability (NCI-H2009; first compound 8 µM) was 0.254. The relative viability (NCI-H2023; first compound 0.08 µM) was 0.537, the relative viability (NCI-H2023; first compound 0.253 µM) was 0.679 and the relative viability (NCI-H2023; first compound 0.8 µM) was 0.498. It also gave a relative viability (NCI-H2023; first compound 2.53 µM) of 0.48, a relative viability (NCI-H2023; first compound 8 µM) of 0.405 and a relative viability (NCI-H2085; first compound 0.08 µM) of 0.222. It also gave a relative viability (NCI-H2085; first compound 0.253 µM) of 0.238, a relative viability (NCI-H2085; first compound 0.8 µM) of 0.225 and a relative viability (NCI-H2085; first compound 2.53 µM) of 0.241. The relative viability (NCI-H2085; first compound 8 µM) was 0.236, the relative viability (NCI-H2126; first compound 0.08 µM) was 0.59 and the relative viability (NCI-H2126; first compound 0.253 µM) was 0.456. It also gave a relative viability (NCI-H2126; first compound 0.8 µM) of 0.43, a relative viability (NCI-H2126; first compound 2.53 µM) of 0.534 and a relative viability (NCI-H2126; first compound 8 µM) of 0.495. The relative viability (NCI-H2347; first compound 0.08 µM) was 0.298, the relative viability (NCI-H2347; first compound 0.253 µM) was 0.286 and the relative viability (NCI-H2347; first compound 0.8 µM) was 0.296. It also gave a relative viability (NCI-H2347; first compound 2.53 µM) of 0.304, a relative viability (NCI-H2347; first compound 8 µM) of 0.298 and a relative viability (NCI-H322M; first compound 0.08 µM) of 0.251. The relative viability (NCI-H322M; first compound 0.253 µM) was 0.262, the relative viability (NCI-H322M; first compound 0.8 µM) was 0.249 and the relative viability (NCI-H322M; first compound 2.53 µM) was 0.253. It also gave a relative viability (NCI-H322M; first compound 8 µM) of 0.279, a relative viability (NCI-H647; first compound 0.08 µM) of 0.128 and a relative viability (NCI-H647; first compound 0.253 µM) of 0.205. It also gave a relative viability (NCI-H647; first compound 0.8 µM) of 0.208, a relative viability (NCI-H647; first compound 2.53 µM) of 0.123 and a relative viability (NCI-H647; first compound 8 µM) of 0.155. For the same compound, the relative viability (NCI-H661; first compound 0.08 µM) was 0.779, the relative viability (NCI-H661; first compound 0.253 µM) was 0.938 and the relative viability (NCI-H661; first compound 0.8 µM) was 0.761. It also gave a relative viability (NCI-H661; first compound 2.53 µM) of 0.729, a relative viability (NCI-H661; first compound 8 µM) of 0.874 and a relative viability (NCI-H727; first compound 0.08 µM) of 0.332. It also gave a relative viability (NCI-H727; first compound 0.253 µM) of 0.438, a relative viability (NCI-H727; first compound 0.8 µM) of 0.449 and a relative viability (NCI-H727; first compound 2.53 µM) of 0.382. The relative viability (NCI-H727; first compound 8 µM) was 0.409, the relative viability (PC-14; first compound 0.08 µM) was 0.225 and the relative viability (PC-14; first compound 0.253 µM) was 0.217. It also gave a relative viability (PC-14; first compound 0.8 µM) of 0.225, a relative viability (PC-14; first compound 2.53 µM) of 0.175 and a relative viability (PC-14; first compound 8 µM) of 0.253. The relative viability (SK-LU-1; first compound 0.08 µM) was 0.156, the relative viability (SK-LU-1; first compound 0.253 µM) was 0.17 and the relative viability (SK-LU-1; first compound 0.8 µM) was 0.205. For the same compound, the relative viability (SK-LU-1; first compound 2.53 µM) was 0.18, the relative viability (SK-LU-1; first compound 8 µM) was 0.182 and the relative viability (SW 1573; first compound 0.08 µM) was 0.417. It also gave a relative viability (SW 1573; first compound 0.253 µM) of 0.66, a relative viability (SW 1573; first compound 0.8 µM) of 0.706 and a relative viability (SW 1573; first compound 2.53 µM) of 0.436. The relative viability (SW 1573; first compound 8 µM) was 0.461.
